Test results taken from patent US7682630B2, “Antitumor agent and process for producing the same” (priority 2003, dated 2010).

Key:
[1] = Release of free drug from the dialysis bag; type: physicochemical; settings: same dialysis setting
Description: It is of importance that large molecular weight polymeric drugs having apparent molecular size larger than 10.000, preferably more than 50 KDa such as SMA-anthracyclin micelles, to exert tumor seeking EPR-effect, and thereby ultimately releasing free drug. To verify the drug complexes of the present invention release free drug from the micelle or polymeric conjugate in vitro, 20 mg of SMA-doxorubicin conjugates or SMA-pirarubicin conjugates was dissolved in 5 ml H2O and placed in sealed dialysis bag (M. W cut off 1.000; Spectrapor, Spectrum Laboratories Inc. CA. USA.). The dialysis bag was submerged in 25 ml of H2O with adjusted pH either at 7.4 to resemble circulating blood or pH 5.5 for tumor tissue, using 0.01 M NaOH and 0.01 M HCl, and incubated at 37° C. for several days in the dark. […] The released pirarubicin or doxorubicin outside the dialysis bag was collected at pre-determined time and amount was quantified by absorbance at 480 nm.
When the outside solution was replaced by ethanol the release rate has increased tremendously indicating the disruption of the hydrophobic interaction in the complex between the anthracyclins and the styrene hydrophobic moiety of SMA. One can envisage this hydrophobic environment would be more close to the endosome after internalization of the polymeric micelle into cytoplasm of cancer cell by endocytosis. […]

[2] = Side effects / hematological toxicity in S-180 bearing mice; type: in vivo; settings: 10 mg/kg iv
Description: S-180 bearing mice with tumors of about 5-7 mm in diameter were used for this study. Full blood analysis was performed weekly for 4 weeks before and after 1, 2 and 3 weeks of iv injections of either doxorubicin, pirarubicin or their SMA micelle complexes as described above. Blood biochemistry including, alanine aminotransferase (ALT), aspartate aminotransferase (AST), lactic dehydrogenase (LDH) and total creatine phosphokinase (CPK) were measured at 36 hr after i.v. administration of either free drugs or SMA-micelle complexes.
At the same time, the heart, spleen, liver and kidney tissues were stained with hematoxylin-eosin (H&E staining) for determination of cytological tissue toxicity.

SMILES | time for free drug to extravasate out of the dialysis tube [1] | Erythrocyte ([2]; 1 week) | Hemoglobin ([2]; 1 week) [g/dL] | Leucocyte ([2]; 1 week) | Survival Rate ([2]; 1 week) [%] | Thrombocyte ([2]; 1 week) | Erythrocyte ([2]; 2 week) | Hemoglobin ([2]; 2 week) [g/dL] | Leucocyte ([2]; 2 week) | Survival Rate ([2]; 2 week) [%] | Thrombocyte ([2]; 2 week) | Erythrocyte ([2]; 3 week) | Hemoglobin ([2]; 3 week) [g/dL] | Leucocyte ([2]; 3 week) | Survival Rate ([2]; 3 week) [%] | Thrombocyte ([2]; 3 week)
COc1cccc2c1C(=O)c1c(O)c3c(c(O)c1C2=O)CC(O)(C(=O)CO)CC3OC1CC(N)C(OC2CCCCO2)C(C)O1 (centres unmarked) [Free pirarubicin, pirarubicin] | within a few hours | 490.6 ± 144 ×10,000/mm^3 | 11.1 ± 0.9 | 2533 ± 108 /mm^3 | 100 | 67.7 ± 0.9 ×1,000/mm^3 | 876 ×10,000/mm^3 | 12.1 | 5000 /mm^3 | 25 | 130 ×1,000/mm^3 | 916 ×10,000/mm^3 | 15.7 | 4500 /mm^3 | 25 | 143 ×1,000/mm^3
COc1cccc2c1C(=O)c1c(O)c3c(c(O)c1C2=O)C[C@@](O)(C(=O)CO)C[C@@H]3O[C@H]1C[C@H](N)[C@H](O)[C@H](C)O1 [doxorubicin] | within a few hours | – | – | – | – | – | – | – | – | – | – | – | – | – | – | –
